Test results published in a melting point compilation (Tetko et al.).

SMILES	melting point [°C]
NN=c1ccc(C(N)=O)n[nH]1	251 to 253
COc1cc(F)c([N+](=O)[O-])cc1OC	139 to 141
Nc1ccc(CCN2CCSCC2)cc1	88 to 90
CC1CNc2ccccc2C(=O)N1 (stereo not given)	189 to 191
Cn1ccnc1Sc1ccc(N)cc1	117 to 119
O=C1CCSc2cc(F)c(F)cc21	93 to 95
CCOc1cc(C=O)ccc1OCc1cccnc1	73 to 75
CC(C)C1(C(=O)O)CC1	54 to 56
CC(C(=O)O)C1CCOCC1 (stereo not given)	39 to 41
COc1ccc2c(c1)C=C(C#N)CO2	72 to 74
CC(C)(C)NC(=O)CN1CCN(CC(N)=S)CC1	148 to 152
N#Cc1cn(-c2ccc([N+](=O)[O-])cn2)nc1N	322 to 324
O=C(O)c1cccnc1NC1CCCC1	222 to 224
CCOC(=O)c1c(CCCO)cnc2nc(C(=O)OC)nn12	86 to 88
NCc1ccc(OCCOc2ccc(Cl)cc2)cc1	130 to 132
C=CCNc1nc(-c2ccccc2)cs1	74 to 76
C=CCn1cnc(-c2ccccc2)c1N	72 to 74
C=CCOc1ccc(O)cc1	36 to 38
COc1ccc(Nc2n[nH]c(N)c2C#N)cc1	119 to 121
O=C1COc2cccc(F)c2N1	172 to 174
Nc1ccccc1CN1CCNC1=O	142 to 144
Clc1cc(N2CCCC2)ncn1	93 to 95
N#CCc1ccc(-n2cccn2)cc1	127 to 129
NCc1nnc2n1CCCC2C(F)(F)F (stereo not given)	81 to 83
ClCc1nnc(-c2ccc(Br)s2)o1	109 to 111
CCOCCCNC(N)=S	84 to 86

SMILES	melting point [°C]
CC(NS(C)(=O)=O)C(=O)NN (stereo not given)	117 to 119
Cn1ccnc(Cl)c1=O	118 to 120
Cc1n[nH]c(N)c1C#N	160 to 162
NC(CN1CCCC1)=NO	142 to 144
Nc1ccc2c(c1)C(=O)NCC2	119 to 121
O=C(O)CNC(=O)NCC1CCCC1	138 to 140
O=C(O)CCN1C(=O)CCC1=O	131 to 133
CNc1cc(-c2cccc(OC)c2)[nH]n1	109 to 111
Cc1sc(N)nc1-c1ccc(Cl)cc1	146 to 148
O=C(CCl)NNC(=O)C1CCC1	199 to 201
NC(=O)Cc1ccc(Br)cc1	194 to 196
COc1cc(C=O)ccc1OCc1ccc(Cl)cc1Cl	114 to 116
CC(C)Nc1ccc(Br)cn1	69 to 71
Nc1ccccc1N1CCN(CCc2ccncc2)CC1	119 to 121
CC(CN(C)C(=O)OC(C)(C)C)C(N)=NO (stereo not given)	124 to 126
CC(C)Cn1cnc(S(N)(=O)=O)c1	144 to 146
CC(C)c1nnnn1CC(=O)O	179 to 181
CC(C)(C)c1ccc(C(O)CN)cc1 (stereo not given)	125 to 127
Cn1ccnc1Sc1ccc(F)cc1N	136 to 138
Cc1ccccc1Nc1nc(N)nc(CCl)n1	203 to 207
COc1cc2c(C#N)c(OC)nc(N)c2c(N)n1	249 to 251
CC(C)n1nnnc1-c1ccc(N)cc1F	118 to 120
COc1ccc(Cl)cc1CBr	77 to 79
N#CCOc1cc(F)ccc1N	59 to 61
Nc1ccc(S(=O)(=O)N2CCCCC2)cn1	171 to 173
CC(C)N1C(=O)NC2(CCNC2)C1=O (stereo not given)	98 to 100

SMILES	melting point [°C]
NCC(O)c1cc(Cl)c2c(c1)OCCO2 (stereo not given)	131 to 133
O=C(O)CC1CCS(=O)(=O)C1 (stereo not given)	87 to 89
O=C1CNc2ccccc2C(=O)N1	207 to 209
NC(=O)c1ccncc1F	126 to 128
COc1cc(CN)c2ccccc2n1	79 to 81
CC1(c2ccc(Br)cc2)CC(=O)OC1=O (stereo not given)	69 to 71
COCCn1c(C)cc(C=O)c1C	44 to 46
Nc1ccc(-c2noc(=O)[nH]2)cc1	198 to 200
ClCCc1ncc(-c2ccccc2)o1	68 to 70
O=c1ccnc(-c2ccccc2)[nH]1	204 to 206
O=C1NC(=O)C2(CCS(=O)(=O)CC2)N1	327 to 329
Nc1ccc(N2CCCC2)c(S(=O)(=O)Nc2cccc(C(F)(F)F)c2)c1	151 to 153
O=C(O)C1(c2ccc(F)cc2)CC1	126 to 128
NC(=O)C1(Nc2ccccc2)CCCCC1	148 to 150
FC(F)(F)Cn1c(-c2ccccc2)cnc1S	179 to 181
Sc1nnc(-c2cccs2)o1	162 to 164
O=C(C1=CNCCC1)c1ccccc1	90 to 92
O=C(O)C1CCCN1C(=O)C12CC3CC(CC(C3)C1)C2 (stereo not given)	193 to 195
CC(C)NO	73 to 75
CC(C)(C)Nc1nccs1	83 to 85
O=C(O)c1cccnc1OCC(F)F	79 to 81
Cc1nccn1-c1ccc(Cl)nn1	122 to 124
Cc1ccc(-c2nc(C=O)co2)cc1	92 to 94
Cc1cc2nc(-c3cccc4ncccc34)[nH]c2cc1C	129 to 131
CC[C@@H](CO)NCc1ccccc1	73 to 75
OCc1ncn(-c2ccccc2)n1	109 to 111

The next lines start with the values.

melting point [°C]	SMILES
171 to 173	NC(CSCc1cccc2cccnc12)C(=O)O (stereo not given)
69 to 71	Cc1cc([N+](=O)[O-])ccc1S(=O)(=O)Cl
79 to 81	O=C(O)C1CCCN1S(=O)(=O)c1ccccc1 (stereo not given)
93 to 95	O=S(=O)(Cl)c1csc(-c2ccc(Cl)cc2)n1
194 to 196	COc1ccc(-c2cc(C(=O)O)no2)c(F)c1
130 to 132	Cc1nn(C)c(C)c1C(CC(=O)O)C(F)(F)F (stereo not given)
92 to 94	Cc1ccc(-n2cc(S(=O)(=O)Cl)cn2)cc1
118 to 120	CCN(CC)S(=O)(=O)c1cc(C(=O)O)ccc1Cl
300 to 302	CC(C)(C)c1cc(C(=O)O)cc(C(=O)O)c1
193 to 195	Cc1cc(C(=O)O)cc(S(=O)(=O)Cl)c1F
237 to 239	O=C(O)c1ccc(-c2ccc(F)cc2)cc1F
222 to 224	Cc1cc(Br)cc2cc(C(=O)O)oc12
97 to 99	COC(=O)c1cc(S(N)(=O)=O)ccc1F
201 to 203	O=C(O)c1cc(S(=O)(=O)N2CCOCC2)ccc1F
146 to 148	CS(=O)(=O)c1ccc(C#N)cc1F
83 to 85	COC(=O)c1ccc(Oc2ccc(Cl)cc2N)cc1
276 to 278	CCC(C)(N)C(=O)O (stereo not given)
289 to 291	Cc1c(C(=O)O)sc2ccc(F)cc12
214 to 216	Nc1c(F)cc(Br)cc1C(=O)O
223 to 225	Cc1nc2ccnn2c(C)c1CCC(=O)O
235 to 237	O=C(O)c1nn(-c2ccccc2F)cc1Br
204 to 206	Cc1c(C(=O)O)ccc2cnc(C3CC3)n12
119 to 121	Nc1cc(S(=O)(=O)NC2CC2)ccc1O

melting point [°C]	SMILES
118 to 119	COc1ccc(S(=O)(=O)N2CCCCCC2)cc1N
219 to 221	COc1ccc2nc(C3CC3)cc(C(=O)O)c2c1
211 to 213	CCn1cnnc1-c1ccc(C(=O)O)cc1
122 to 124	CS(=O)(=O)c1ccc(F)c(S(=O)(=O)Cl)c1
128 to 130	O=C(O)Cc1csc(Cc2ccccc2)n1
213 to 215	Cc1cc(C(=O)O)c(C)n1-c1ccccc1
159 to 161	CCc1c(C(=O)O)cnn1-c1ccccc1
36 to 38	CCCOC(=O)c1ccc(S(=O)(=O)Cl)cc1
133 to 135	Cc1ccc(S(=O)(=O)CC(=O)CBr)cc1
201 to 203	CC1=CC(=O)N(c2ccc(C(=O)O)cc2)C1=O
< 17	CCOc1ccc(N)cc1S(=O)(=O)N(C)C
80 to 84	O=C(O)c1ccccc1OCc1ccc(F)cc1
210 to 212	COC(=O)c1ccc(C(=O)O)cn1
229 to 231	NC(=NO)c1cccc(NC(=O)C2CC2)c1
66 to 68	CCOC(=O)C(=O)CC(=O)c1cccnc1
118 to 120	O=C(O)c1cccc(=O)n1CCOc1ccccc1Cl
179 to 181	COc1ccccc1C1(C)NC(=O)N(CC(=O)O)C1=O (stereo not given)
136 to 138	O=C(O)c1ccc(CS)c(F)c1
141 to 143	COc1ccc(C)cc1/C=C/C(=O)O
103 to 105	CCCC(C)(NC(=O)OCc1ccccc1)C(=O)O (stereo not given)
151 to 153	CN(C)C(=O)c1ccc(N)cc1
118 to 120	COc1cc(C)ccc1OCC(=O)O
101 to 103	COc1ccc(/C=N/OCC(=O)O)cc1

melting point [°C]	SMILES
102 to 104	CCN(c1ccccc1)S(=O)(=O)c1cc(N)ccc1Cl
181 to 183	CN1CC(=O)Nc2cc(Cl)ccc21
51 to 53	CCOC(=O)C(=O)CC(=O)c1ccc(OC)cc1
157 to 159	COCCOc1ccc(-n2nc(C)c(C(=O)O)n2)cc1
154 to 156	Cc1ccc2c(c1)OC(C)C(=O)N2 (stereo not given)
111 to 113	Cc1c(N)cccc1S(=O)(=O)NC1CC1
82 to 84	COC(=O)c1cc2ccccc2nc1Cl
119 to 121	O=C(NCC(F)(F)F)c1ccc(Br)cc1
161 to 163	O=C(O)CCc1c(-c2ccccc2)[nH]c2ccc(F)cc12
49 to 51	CCOC(=O)c1ncn(-c2ccccc2)n1
129 to 131	COC(=O)c1cc(O)c(C)c(F)c1
59 to 61	CCOC(=O)c1ccccc1C#N
145 to 147	CCOc1ccc(NS(=O)(=O)c2ccc(N)cc2)cc1
117 to 119	CC(=O)N(c1cccc(C)c1)c1nc(CCl)cs1
134 to 136	Cc1ccc([N+](=O)[O-])c(OCCC(=O)O)c1
92 to 94	O=S(=O)(c1cccc(CCl)c1)N1CCOCC1
52 to 54	COc1ccc(C(C)C(=O)O)cc1 (stereo not given)
214 to 216	O=C(O)CNC(=O)c1ccc(Cl)cc1
139 to 141	NS(=O)(=O)c1ccc(F)c(C(=O)O)c1F
168 to 170	Cn1cnnc1Sc1ccc(N)cc1Cl
117 to 121	O=[N+]([O-])c1ccc(O)c(Cc2ccccc2)c1
